{"source": "patent US11464854B2", "about": "“Methods and compositions relating to adjuvants” (Children's Medical Center Corporation, priority 2017, dated 2022)", "key": {"[1]": {"tested_on": "TNF", "test": "Rat pharmacodynamics: serum TNF by ELISA", "format": "in vivo, rats", "conditions": "rat, in vivo, sc"}, "[2]": {"tested_on": "cytokine and IFN-inducible gene expression in draining lymph nodes and spleen", "format": "in vivo, mice", "conditions": "mouse, in vivo, sc"}}}
{"smiles": "CCOCc1nc2c(N)nc3ccccc3c2n1CC(C)(C)O", "note": "[R848, Resiquimod, reference compound]", "values": [{"measurement": "Blood tumor necrosis factor (TNF) concentrations, peak", "setting": "[1]", "value": "~1,000 pg/ml"}, {"measurement": "time of peak cytokine mRNA expression", "setting": "[2]", "value": "1 to 3", "unit": "h"}]}
